Assay results published in PMC11855866 (International Journal of Molecular Sciences, 2025).
In brackets after ≈: the same amount, converted by molar mass. Like-named read-outs stand apart in the source and are kept apart here.

Key:
HepG2 cells [1] = experiment: MTT cytotoxicity / synergy assay, 72 h, HepG2
Experimental: (§1) The synergistic effects of drug combinations were studied in various cancer cell lines, including MCF-7 (human breast cancer), A549 (human lung cancer), U-87 MG (human malignant glioma), HepG2 (human liver cancer), and HUH7 (human liver cancer). HMEC-1, an immortalized human microvascular endothelial cell line, was used as a model for normal cells. All cell lines were purchased from ATCC (Rockville, MD, USA).
(§2) The cancer cell lines were cultured in Dulbecco’s Modified Eagle’s Medium (DMEM; Sigma-Aldrich) supplemented with 10% FBS and 1% penicillin/streptomycin mixture (10,000 U/mL penicillin and 10 mg/mL streptomycin; Sigma-Aldrich) at 37 °C in a humidified atmosphere with 5% CO2.
(§3) For the MTT assay, exponentially growing cells were seeded into 96-well plates at a density of 5 × 10³ cells per well. After 24 h of incubation, the medium was replaced with 100 µL of fresh medium containing the tested compounds. After 72 h of treatment, cell viability was assessed using the MTT assay as described earlier. […] IC50 values were calculated using GraphPad Prism 9 software (GraphPad Software).

[2] = Hemolysis (Drabkin's method); assay type: cell-based; details: human, washed erythrocyte (RBC) suspension, 40% hematocrit, pH 7.4, single drug, RT, dark, CTRL− 11.6%
Experimental: Blood samples were collected from healthy human volunteers into Vacutainer tubes containing 3% sodium citrate (BD Biosciences, Warsaw, Poland). Whole blood was centrifuged at 1500 rpm (RCF = 214 g) for 10 min in a CompactStar CS4 centrifuge (VWR) at RT to separate erythrocytes, which were washed twice with PBS (pH 7.4) and centrifuged at 1500 rpm for 5 min at RT after each wash. Hematocrit was measured to adjust the final RBC concentration in PBS (pH 7.4) to 40%. The drugs were then dissolved in the RBC suspension at the final concentrations outlined in Figure 8. RBCs incubated in dH2O were used as a positive control (100% hemolysis), while RBCs in PBS were used as the negative control. A blank sample of PBS without RBCs or drugs provided a baseline for absorbance measurements. Experimental samples, along with positive, negative, and vehicle (0.5% DMSO) controls, were incubated for 4 h at RT in the dark. After incubation, the samples were centrifuged at 1500 rpm for 5 min at RT, and the supernatant was collected to measure hemoglobin release using Drabkin’s method. Absorbance was measured at 540 nm with a Jenway 6305 UV/Vis spectrophotometer (Bibby Scientific, Staffordshire, UK). This study was conducted in triplicate. The percentage of hemolysis was calculated by comparing the absorbance at 540 nm (OD540) of the test sample with that of the positive control using the following formula:(2) % Hemolysis=OD540Test−OD540(Blank)/OD540Total Lysis−OD540(Blank)×100%

HSA = test system: HSA; design: method as in Figure S2 [39–71]; details: ref Figure S2 [39–71]; cited from earlier work
[3] = design: method as in Figure S2 [39–71]; details: ref Figure S2 [39–71]; cited from earlier work
MCF-7 cells [4] = experiment: MTT cytotoxicity / synergy assay, 72 h, MCF-7; assay type: cell-based, human; details: 72 h; for decrease in cell viability caused by 0.05% Tween-80: with vs. without 0.05% Tween-80; for IC50: MTT, n.d. = IC50 not achieved within concentrations tested, read-out: IC50 Value in Specific Cell Line, MCF-7
Experimental: Stock solutions of the tested compounds were first prepared in DMSO at 200-fold the intended final concentration. […] The cells were treated for 72 h under the same conditions.
Following treatment, 25 μL of MTT solution was added to each well, and the plates were incubated for 2 h at 37 °C. […] IC₅₀ values, indicating the concentration required to reduce cell viability by 50% compared to untreated controls (set as 100% viability), were calculated using GraphPad Prism 9 software (GraphPad Software, San Diego, CA, USA). All data from this preliminary cytotoxic assay were analyzed by ANOVA followed by Tukey’s post hoc test for multiple comparisons, with significance set at p < 0.05. A similar statistical approach was used for the rest of the experimental work presented in this study.

HMEC-1 cells = experiment: MTT cytotoxicity / synergy assay, 72 h, HMEC-1; details: read-out: IC50 Value in Specific Cell Line, HMEC-1; for CC50: Homo sapiens, HMEC-1, 72 h
Experimental: as §1, §2, §3

[5] = DLS particle size measurements; assay type: physicochemical; details: 100–500 µM CHLO, […] BSA, 0.05% Tween-80
Experimental: Dynamic light scattering (DLS) measurements were performed using a Zetasizer Nano ZS instrument (Malvern Instruments, Malvern, UK). Samples of 2 mL were placed in disposable PMMA cuvettes (cat. #634-0677; VWR, Gdańsk, Poland) and measured at 37 °C. To ensure accuracy, each sample was measured at least three times. The data were processed using DTS v6.2 software (Malvern Instruments).

[6] = test system: A549, HepG2, MCF-7, and U-87MG; experiment: Doxorubicin accumulation assay, sensitive cell lines; assay type: cell-based, human
Experimental: Cells were seeded at a density of 2 × 10^4 cells per well in black 96-well plates as described in Section 3.6.

U-87MG cells = experiment: MTT cytotoxicity / synergy assay, 72 h, U-87MG; assay type: cell-based; details: Homo sapiens, n.d. = IC50 not achieved within concentrations tested, read-out: IC50 Value in Specific Cell Line, U-87MG
Experimental: as §1, §2, §3

A549 cells [7] = details: human
Experimental: as §1, §2, §3

A549 cells [8] = experiment: MTT cytotoxicity / synergy assay, 72 h, A549; details: Homo sapiens, A549, 72 h, read-out: IC50 Value in Specific Cell Line, A549
Experimental: as §1, §2, §3

HuH7 cells = experiment: MTT cytotoxicity / synergy assay, 72 h, HuH7; details: Homo sapiens; for IC50: Huh-7, 72 h, read-out: IC50 Value in Specific Cell Line, HuH7
Experimental: as §1, §2, §3

HepG2 cells [9] = details: human
Experimental: as §1, §2, §3

MCF-7 cells [10] = details: read-out: IC50 value, MCF-7; cited from earlier work
MRP1 = details: cited from earlier work
mammary tumors [11] = details: 20 days; GLIB 0.06 mg/kg/day orally, tamoxifen 1 mg/kg/day s.c.; cited from earlier work
mammary tumors [12] = details: 20 days; GLIB 0.06 mg/kg/day orally, tamoxifen 1 mg/kg/day s.c.; cited from earlier work; remark: listed apart in the source
BSA = target: BSA; design: method as in PMID 29772022; details: read-out: Kd (binding to BSA); cited from earlier work
[13] = Analysis of drug stability in PBS; assay type: physicochemical; details: equimolar mixtures with DOXO, PBS (pH 7.4), 37 °C, 7 to 14 days
Experimental: The samples were prepared in PBS (pH 7.4) containing 0.05% (v/v) Tween-80 and 0.5% (v/v) DMSO. […] The samples were placed into 2 mL HPLC vials, sealed, and incubated at 37 °C for 7 to 14 days. Every 24 h, 20 µL aliquots were taken for HPLC analysis.

[14] = test system: 4T1 breast cancer and B16F10 melanoma xenografts; details: 4T1, B16F10 xenografts, MMTV-PyMT; cited from earlier work
[15] = Homo sapiens, HepG2, 72 h, read-out: IC50 Value in Specific Cell Line, HepG2

CCCCNC(=O)NS(=O)(=O)c1ccc(N)cc1 [CARB, Carbutamide]
IC50 (HepG2 cells [1]; [15]): 70.7 ± 1.4 µM

CCCNC(=O)NS(=O)(=O)c1ccc(Cl)cc1 [CHLO, Chlorpropamide]
hemolysis at 4 h [2]: 11.2 to 11.9% | nKa (global affinity constant, HSA) (HSA): 62000 M⁻¹ | solubility [3]: 1.0 mM (≈ 277 µg/mL) | decrease in cell viability caused by 0.05% Tween-80 (MCF-7 cells [4]): 3.2% | IC50 (MCF-7 cells [4]; Homo sapiens, MCF7, 72 h): > 500 µM | CC50 (HMEC-1 cells): 218.2 ± 1.6 µM | aggregate formation [5]: do not form aggregates | increase of DOXO levels [6]: up to 2.3 times | IC50 (HepG2 cells [1]; Homo sapiens, HepG2, 72 h, read-out: IC50 Value in Specific Cell Line, HepG2, MTT, 72 h, n.d. = IC50 not achieved within concentrations tested): 480 ± 54.1 µM

COc1cccc2c1C(=O)c1c(O)c3c(c(O)c1C2=O)C[C@@](O)(C(=O)CO)C[C@@H]3O[C@H]1C[C@H](N)[C@H](O)[C@H](C)O1 [DOXO, Doxorubicin]
IC50 (U-87MG cells): 0.57 ± 0.11 µM | A549 cell viability (A549 cells [7]): 0.643 ± 0.002 | IC50 (A549 cells [8]): 0.27 ± 0.02 µM | hemolysis at 4 h [2]: 32.3% | decrease in cell viability caused by 0.05% Tween-80 (MCF-7 cells [4]): 12.6% | IC50 (MCF-7 cells [4]; Homo sapiens, MCF7): 0.46 ± 0.06 µM | IC50 (HuH7 cells): 0.28 ± 0.02 µM | viability at 0.65 µM (HuH7 cells; Huh-7, read-out: HuH7 cell viability): 53.5 ± 0.4% | CC50 (HMEC-1 cells): 0.08 ± 0.01 µM | IC50 (HepG2 cells [1]; [15]): 0.3 ± 0.01 µM | HepG2 cell viability (HepG2 cells [9]): 0.695 ± 0.003

COc1ccc(Cl)cc1C(=O)NCCc1ccc(S(=O)(=O)NC(=O)NC2CCCCC2)cc1 [GLIB, Glibenclamide]
IC50 (MCF-7 cells [10]): 325 µM | concentration increasing intracellular accumulation of calcein (MRP1): ≥ 3.12 µM | IC50 (HuH7 cells): 493.2 ± 1.3 µM | tumors responded (mammary tumors [11]): no response | CC50 (HMEC-1 cells): 248 ± 3.6 µM | tumors responded (regressed or remained stable) (mammary tumors [12]): 64% | Kd (BSA): 0.67 µM

Cc1ccc(S(=O)(=O)NC(=O)NN2CC3CCCC3C2)cc1 (stereo not shown) [GLIC, Gliclazide]
IC50 (MCF-7 cells [10]): 216 µM | stability [13]: slow but noticeable degradation | IC50 (MCF-7 cells [4]; Homo sapiens, MCF7, 72 h): 87.9 µM | CC50 (HMEC-1 cells): 447.7 ± 2.3 µM | Kd (BSA): 155 µM

Cc1cnc(C(=O)NCCc2ccc(S(=O)(=O)NC(=O)NC3CCCCC3)cc2)cn1 [GLIP, Glipizide]
IC50 (MCF-7 cells [4]; Homo sapiens, MCF7): 339 ± 18.8 µM | IC50 (HuH7 cells): 421.9 ± 0.5 µM | CC50 (HMEC-1 cells): 454.1 ± 1.8 µM | IC50 (HepG2 cells [1]; [15]): 229 ± 10.9 µM | effect on tumor growth and metastasis [14]: inhibited tumor growth and metastasis

COc1ccc2c(c1)C(=O)N(CCc1ccc(S(=O)(=O)NC(=O)NC3CCCCC3)cc1)C(=O)C2(C)C [GLIQ, Gliquidone]
IC50 (U-87MG cells): 57.1 ± 1.8 µM | IC50 (A549 cells [8]): 259 ± 16.3 µM | hemolysis at 4 h [2]: 11.2 to 11.9% | IC50 (MCF-7 cells [4]; Homo sapiens, MCF7): 68.8 ± 2.5 µM | IC50 (HuH7 cells): 400.7 ± 2.2 µM | CC50 (HMEC-1 cells): 157 ± 2.2 µM | increase of DOXO levels [6]: up to 2.3 times | IC50 (HepG2 cells [1]; [15]): 39.6 ± 2.6 µM

COCCCNC(=O)NS(=O)(=O)c1ccc(C)cc1 [MESU, N-(3-methoxy-propyl)-N’-(toluene-4-sulfoyl)-urea]
IC50 (MCF-7 cells [4]): 495.9 ± 0.8 µM | IC50 (HMEC-1 cells; MTT, 72 h, n.d. = IC50 not achieved within concentrations tested): 78.3 ± 2.4 µM | IC50 (HepG2 cells [1]; read-out: IC50 Value in Specific Cell Line, HepG2, MTT, 72 h, n.d. = IC50 not achieved within concentrations tested): 63.1 ± 0.3 µM

Cc1ccc(S(=O)(=O)NC(=O)NN2CCCCCC2)cc1 [TOLA, Tolazamide]
stability [13]: slow but noticeable degradation | CC50 (HMEC-1 cells): 468.6 ± 0.5 µM | IC50 (HepG2 cells [1]; [15]): 470 ± 12.4 µM

CCCCNC(=O)NS(=O)(=O)c1ccc(C)cc1 [TOLB, Tolbutamide]
IC50 (MCF-7 cells [4]; Homo sapiens, MCF7): 461 ± 53.9 µM | CC50 (HMEC-1 cells): 88.2 ± 4.1 µM | IC50 (HepG2 cells [1]; [15]): 232 ± 21.6 µM

CC/C(=C(\c1ccccc1)c1ccc(OCCN(C)C)cc1)c1ccccc1 [tamoxifen]
tumors responded (mammary tumors [11]): 75% | tumors responded (regressed or remained stable) (mammary tumors [12]): 57%

Tween-80
concentration above which survival of MCF-7 cells is significantly reduced (MCF-7 cells [4]): above 0.05 % (v/v)
